Experimental data published in BindingDB's records for doi:10.7270/Q2NV9GP9 (Burnham Center For Chemical Genomics, 2010).
Structures can show the parent of a compound that is named as a salt.

Biological target: T1, Apelin receptor (Homo sapiens, UniProt P35414)
T1 sequence (P35414 whole entry): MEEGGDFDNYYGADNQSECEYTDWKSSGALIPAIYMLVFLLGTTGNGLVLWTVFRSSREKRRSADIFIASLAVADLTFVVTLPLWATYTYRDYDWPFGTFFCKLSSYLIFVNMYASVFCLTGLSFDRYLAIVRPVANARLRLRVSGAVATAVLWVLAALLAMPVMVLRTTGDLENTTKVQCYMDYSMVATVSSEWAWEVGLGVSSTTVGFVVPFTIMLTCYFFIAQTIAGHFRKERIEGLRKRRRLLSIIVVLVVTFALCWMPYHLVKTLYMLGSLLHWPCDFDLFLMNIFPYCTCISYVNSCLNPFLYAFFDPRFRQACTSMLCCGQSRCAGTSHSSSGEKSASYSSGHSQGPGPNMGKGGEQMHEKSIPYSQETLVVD
Assay: APJ agonists inducing beta-arrestin recruitment, dose response, cell-based, luminescence, uHTS hits (AID 488748)
Settings: not given

Row | Structure (SMILES) | EC50 [µM]
1 | CC1CCCCN1S(=O)(=O)c1ccc(C(=O)N(CCCN(C)C)c2nc3ccc(Br)cc3s2)cc1 (stereo not given) | > 100
2 | CCSc1nc(O)c(CC)c(=O)n1C(C)CC (stereo not given) [SMR000103074] | > 100
3 | COc1cc(NC(=S)NC(=O)CCc2ccccc2)cc(OC)c1 [SMR000668635] | > 100
4 | COc1cc2c(cc1NC(=O)c1cc(-c3ccncc3)nc3ccc(C)cc13)oc1ccccc12 | > 100
5 | COc1cccc2sc(N(CCCN(C)C)C(=O)c3ccc(S(=O)(=O)N4CCc5ccccc5C4)cc3)nc12 [MLS001239312] | > 100
6 | CC1CCN(S(=O)(=O)c2ccc3nc(-c4ccccn4)cc(C(=O)NCCN(C)Cc4ccccc4)c3c2)CC1 [MLS000682486] | > 100
7 | O=c1oc2cc(OCc3ccc([N+](=O)[O-])cc3)ccc2c2c1CCCC2 [SMR000176214] | > 100
8 | Clc1cccc(CN2CCc3c([nH]c4ccccc34)C2)c1 | > 100
9 | CC1(OC(=O)C2CCCC2)C(=O)C=C2C=C(c3ccsc3)N(C3CCCC3)C=C2C1=O (stereo not given) [SMR000452667] | > 100

Other lines, results leading:

Row | EC50 [µM] | Structure (SMILES)
10 | > 100 | CCOc1cccc2sc(N(CCCN(C)C)C(=O)c3ccc(S(=O)(=O)N4CCc5ccccc5C4)cc3)nc12 [4-(3,4-dihydro-1H-isoquinolin-2-ylsulfonyl)-N-[3-(dimethylamino)propyl]-N-(4-ethoxy-1,3-benzothiazol-2-yl)benzamide;hydrochloride]
11 | > 100 | Cc1cc(C)c2sc(N(CCCN(C)C)C(=O)c3ccc(S(=O)(=O)N4CCc5ccccc5C4)cc3)nc2c1 [MLS001239249]
12 | > 100 | CCC(c1nnnn1CCOC)N(Cc1ccc(C)cc1)Cc1cc2cc(OC)ccc2[nH]c1=O (stereo not given)
13 | > 100 | CCOc1ccc2nc(O)c(CN(CCO)C(c3nnnn3C3CCCCC3)C(C)C)cc2c1 (stereo not given) [SMR000004541]
14 | > 100 | CCC(c1nnnn1Cc1ccccc1)N(Cc1cc2cc(OC)ccc2[nH]c1=O)CC1CCCO1 (stereo not given) [3-[[1-(1-benzyltetrazol-5-yl)propyl-(oxolan-2-ylmethyl)amino]methyl]-6-methoxy-1H-quinolin-2-one]

Same assay, conditions: inactive by the depositor's call

Row | EC50 [µM] | Structure (SMILES)
15 | 77.6 | CCCCC1=CC2=CC(=O)C(C)(OC(=O)CC)C(=O)C2=CN1C1CCCCC1 (stereo not given)
